{"source": "patent US20090055945A1", "about": "“Method for Producing Nuclear-Transplanted Egg” (priority 2005, published 2009)", "key": {"[1]": {"tested_on": "oocytes injected with nuclear domains of round spermatids", "assay": "Birth rate after round spermatid injection (ROSI)", "assay_type": "in vivo, mouse", "procedure": "The effect of the TSA treatment according to the present invention on round spermatid injection (ROSI) was examined. ROSI was carried out according to the method as described in Non-patent Document 13.\nBriefly, human choriogonadotropin (hCG) was first administered to female B6D2F1 mice (Japan SLC). Oocytes were collected after 16 hours and placed in a CZB medium. The oocytes were then transferred to a KSOM medium and incubated at 37° C. under 5% CO2.\nThe oocytes were activated by incubation in Ca^2+-free CZB medium supplemented with 5 mM strontium chloride (SrCl2) for 20 minutes. After 40 to 80 minutes, the oocytes were injected with the nuclear domains of round spermatids (characterized by diameters of about 10 μm and centrally located distinct nucleoli; see Non-patent Document 14) collected from a male C57BL/6 mouse (Japan SLC).\nThe oocytes injected with nuclei were transferred to KSOM medium containing 5 nM TSA, and further transferred to KSOM medium without TSA 10 hours after the initiation of activation.\nEmbryos at the 2-cell stage were implanted into oviducts of pseudopregnant mice (surrogate mothers, day 0.5) on the day after the spermatid injection. Fetuses were obtained by cesarean section 19 days after the embryo implantation. The ratio of the number of born fetuses to the number of implanted embryos (birth rate) was determined."}, "[2]": {"tested_on": "oocytes after fertilization", "settings": "treatment of oocytes after fertilization; Non-patent Document 3; cited from earlier work"}, "[3]": {"tested_on": "oocytes into which nuclei from ES cells (E14) were transferred", "assay": "Expanded blastocyst formation, ES cells as donor cells", "assay_type": "cell-based, mouse", "settings": "ES cell donor nuclei; 50 nM TSA for 20 hours; FIG. 8", "procedure": "A procedure similar to that described in Example 1 was carried out using fibroblasts or embryonic stem cells (ES cells) as donor cells in place of cumulus cells. Fibroblasts were obtained by culturing a fragment of mouse tail (Non-patent Document 11). E14 cells were used as ES cells (Non-patent Document 12).\nOocytes into which nuclei from the donor cells were transferred were treated with TSA for 20 hours, and cultured in KSOM medium without TSA until 96 hours after the initiation of activation. Then, development into expanded blastocysts was observed and the blastocyst formation rate was determined. 30 or more embryos were examined in each of the experimental groups of the respective cells."}, "[4]": {"tested_on": "fibroblasts as donor cells", "settings": "donor fibroblasts cultured with agent prior to nuclear transfer; Non-patent Document 1; cited from earlier work"}, "[5]": {"tested_on": "cloned embryos derived from cumulus cells", "assay": "Methylation of DNA and histone H3 Lys9 in cloned embryos", "assay_type": "cell-based, mouse", "settings": "500 nM TSA for 15 hours; FIG. 9", "procedure": "Cloned embryos derived from cumulus cells were produced using oocytes from B6D2F1 mice produced according to the method as described in Example 1, and cultured in the presence or absence of 500 nM TSA for 15 hours (including the activation period). Then, the nuclear transfer embryos were fixed, and methylation of DNA (DNA metC) and methylation of histone H3 Lys9 (H3K9 trimet) were examined using antibodies against the respective antigens. Furthermore, DNA was stained with DAPI. 15 cloned embryos were used for each group. The results are shown in FIG. 9 along with the merged images (Merge)."}, "[6]": {"tested_on": "nuclear transfer embryos", "assay": "Birth rate of cloned mice after implantation of treated nuclear transfer embryos", "assay_type": "in vivo, mouse", "procedure": "Based on the results of Example 3, the effect of the TSA treatment on the fetus birth rate was examined. […] after the initiation of activation and transferred to KSOM medium without TSA, and the nuclear transfer embryos transferred to KSOM medium without TSA were cultured in this medium until implantation. For producing cloned mice, embryos at the 2-cell stage were implanted into oviducts of pseudopregnant mice (surrogate mothers, day 0.5) on the day after the nuclear transfer. The pseudopregnancy treatment was carried out by mating a ICR female mouse (in estrus) with an ICR vasectomized male mouse on a one-to-one basis. The successful mating was confirmed based on the presence of plug formation. Cloned mice were delivered by cesarean section 19 days after the embryo transfer into oviduct. The ratio of the number of born cloned mouse fetuses to the number of implanted embryos (birth rate) was determined. Cloned mouse fetuses and placentas immediately after birth (left), and cloned mice (black) and a surrogate mother (white) after three weeks (right) are shown in FIG. 6."}}}
{"compound": "CC(/C=C/C(=O)NO)=C\\[C@@H](C)C(=O)c1ccc(N(C)C)cc1", "note": "[TSA, trichostatin A]", "values": [{"measurement": "increase in birth rate vs control without TSA", "setting": "[1]; TSA 5 nM", "result": "about 4 fold"}, {"measurement": "Birth rate (%)", "setting": "[1]; TSA 5 nM until 10 hours after initiation of activation", "result": 26.3, "unit": "%"}, {"measurement": "Birth number", "setting": "[1]; TSA 5 nM until 10 hours after initiation of activation, 38 implanted embryos", "result": 10}, {"measurement": "development rate", "setting": "[2]", "result": "reduced"}, {"measurement": "blastocyst development rate compared with the case without TSA", "setting": "[3]", "result": "higher"}, {"measurement": "blastocyst development rate", "setting": "[4]", "result": "increased"}, {"measurement": "methylation of DNA and histone H3 Lys9 in other chromosomal portions", "setting": "[5]", "result": "reduction in methylation of both was observed"}, {"measurement": "methylation of DNA and histone H3 Lys9 in the pericentromeric region", "setting": "[5]", "result": "prominent reduction was not observed"}, {"measurement": "Birth rate (%)", "setting": "[6]; TSA 5 nM, treatment time 10 h", "result": 6.2, "unit": "%"}, {"measurement": "Number of born fetuses", "setting": "[6]; TSA 5 nM, treatment time 10 h, 289 implanted embryos", "result": 18}, {"measurement": "Birth rate (%)", "setting": "[6]; TSA 5 nM, treatment time 20 h", "result": 3.2, "unit": "%"}, {"measurement": "Number of born fetuses", "setting": "[6]; TSA 5 nM, treatment time 20 h, 274 implanted embryos", "result": 9}, {"measurement": "Birth rate (%)", "setting": "[6]; TSA 50 nM, treatment time 10 h", "result": 7.7, "unit": "%"}, {"measurement": "Number of born fetuses", "setting": "[6]; TSA 50 nM, treatment time 10 h, 91 implanted embryos", "result": 7}, {"measurement": "Birth rate (%)", "setting": "[6]; TSA 50 nM, treatment time 20 h", "result": 2.5, "unit": "%"}, {"measurement": "Number of born fetuses", "setting": "[6]; TSA 50 nM, treatment time 20 h, 81 implanted embryos", "result": 2}, {"measurement": "birth rate vs control", "setting": "[6]; TSA treatment for 10 hours or 20 hours", "result": "increased"}]}
